Assay [1] has as its system sorbitol accumulation in the sciatic nerve. The assay can be described thus: Inhibition of sorbitol accumulation in the sciatic nerve of streptozotocinized (diabetic) rats. Type of assay: in vivo. As to conditions: oral at 4, 8 and 24 h after streptozotocin, rat sciatic nerve, 27 h after induction of diabetes. The method, then:
Some of the Examples of derivatives prepared above were also tested for their ability to reduce or inhibit sorbitol accumulation in the sciatic nerve of streptozotocinized (i.e., diabetic) rats essentially by the procedure described in U.S. Pat. No. 3,821,383. In the present study, the amount of sorbitol accumulation in the sciatic nerves was measured 27 hours after induction of diabetes. The compounds were administered orally at the dose level indicated at 4, 8 and 24 hours following the administration of streptozotocin. The results obtained in this manner are presented in terms of percent inhibition (%) afforded by the test compound compared to the control where no compound was administered (i.e., the untreated animal where sorbitol levels normally rise from approximately […] tissue to as high as […] tissue in the 27-hour test period).

Assay [2] concerns the target T1, aldose reductase (Bos taurus, UniProt P16116).
T1 construct: partially purified aldose reductase enzyme obtained from calf lens; from tissue; host or cells: calf lens
The assay can be described thus: Aldose reductase inhibitory activity. The assay is classed as biochemical, calf lens (partially purified enzyme). As to conditions: partially purified aldose reductase from calf lens; read-out: 50% Inhibitory Concentration. The method, then:
The derivatives prepared in Examples 1-6 were tested for their ability to reduce or inhibit aldose reductase enzyme activity, following the procedure described in U.S. Pat. No. 3,821,383 and based on the procedure of Hayman et. al., Journal of Biological Chemistry, 240, 877 (1965). The substrate employed was partially purified aldose reductase enzyme obtained from calf lens. The drug was tested to determine the concentration that would cause 50 percent inhibition of enzyme activity.

pIC50: −log10 of the molar value.

`O=C1NC(=O)C2(CCOc3c(-c4ccccc4)cccc32)N1` (stereo not shown) [Example 4, 8'-phenyl-spiro[imidazolidine-4,4'-chroman]-2,5-dione]: in assay [1] (10 mg./kg. t.i.d.), the “% Inhibition (sorbitol accumulation)” value amounted to 54%. Besides, in assay [2], the pIC50 was 6.00. With `O=C1NC(=O)C2(CCOc3c(Cl)cc(-c4ccccc4)cc32)N1` (stereo not shown) [Example 6, 8'-chloro-6'-phenyl-spiro[imidazolidine-4,4'-chroman]-2,5-dione], the pIC50 in assay [2] was 5.00. With `O=C1NC(=O)C2(CCOc3ccc(Oc4ccccc4)cc32)N1` (stereo not shown) [Example 5, 6'-phenoxy-spiro[imidazolidine-4,4'-chroman]-2,5-dione], the “% Inhibition (sorbitol accumulation)” value in assay [1] (1.5 mg./kg. t.i.d.) amounted to 0%. Besides, the pIC50 in assay [2] was 5.00. In the case of `O=C1NC(=O)C2(N1)c1ccccc1CCC2c1ccccc1` (stereo not shown) [Example 1, 1',2',3',4'-tetrahydro-3'-phenyl-spiro[imidazolidine-4,4'-naphthalene]-2,5-dione], the “% Inhibition (sorbitol accumulation)” value in assay [1] (25 mg./kg. t.i.d.) was found to be 18%. For the same molecule, in assay [2], the pIC50 was < 4.00. On to `O=C1NC(=O)C2(CCC(c3ccccc3)c3ccccc32)N1` (stereo not shown) [Example 2, 1',2',3',4'-tetrahydro-1'-phenyl-spiro[imidazolidine-4,4'-naphthalene]-2,5-dione], for which the “% Inhibition (sorbitol accumulation)” value in assay [1] (25 mg./kg. t.i.d.) is listed as 27%. Moreover, the pIC50 in assay [2] was 4.00. On to `O=C1NC(=O)C2(CCOc3ccc(-c4ccccc4)cc32)N1` (stereo not shown) [Example 3, 6'-phenyl-spiro[imidazolidine-4,4'-chroman]-2,5-dione], for which, in assay [1] (1.5 mg./kg. t.i.d.), the “% Inhibition (sorbitol accumulation)” value worked out at 0%.

These data come from patent US4181729A, “Phenyl or phenoxy substituted spiro-imidazolidinedione derivatives” (Pfizer Inc., priority 1979, dated 1980).
